Results as given in patent US12599136B2, “Substituted isophthalic acid diamides and their use as herbicides” (Bayer Aktiengesellschaft, priority 2020, dated 2026).

Assays:
Format in all cases: in vivo
Viola tricolor [1] = assay: Post-emergence herbicidal action against VIOTR
Method in brief: (§1)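 A WP or EC formulation diluted in water with 0.2% wetting agent was sprayed at 600 to 800 l/ha onto one-leaf-stage plants grown in sandy loam. About 3 weeks later, action was rated visually in percent, 100% being dead plants.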

Amaranthus retroflexus [2] = assay: Pre-emergence herbicidal action against AMARE; details: visual score after 3 weeks vs untreated controls
Method in brief: (§2)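 Greenhouse pots of sandy loam held seeds covered with soil, onto which the compound was applied before emergence. An aqueous suspension or emulsion of WP or EC was used at 600 to 800 l/ha with 0.2% wetting agent. Percent damage was judged visually at 3 weeks.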

Veronica persica = assay: Pre-emergence herbicidal action against VERPE; details: 320 g/ha
Method in brief: as §2

Stellaria media [3] = assay: Post-emergence herbicidal action against STEME; details: visual assessment about 3 weeks after treatment
Method in brief: as §1

Echinochloa crus-galli [4] = assay: Pre-emergence herbicidal action against ECHCG; details: visual score after 3 weeks vs untreated controls
Method in brief: as §2

Echinochloa crus-galli [5] = assay: Post-emergence herbicidal action against ECHCG; details: visual assessment about 3 weeks after treatment
Method in brief: as §1

Abutilon theophrasti [6] = assay: Pre-emergence herbicidal action against ABUTH; details: visual score after 3 weeks vs untreated controls
Method in brief: as §2

Matricaria inodora [7] = assay: Pre-emergence herbicidal action against MATIN; details: visual score after 3 weeks vs untreated controls
Method in brief: as §2

Abutilon theophrasti [8] = assay: Post-emergence herbicidal action against ABUTH
Method in brief: as §1

Hordeum murinum [9] = assay: Post-emergence herbicidal action against HORMU
Description: Seeds of monocotyledonous and dicotyledonous weed and crop plants are laid out in sandy loam soil in wood-fiber pots, covered with soil and cultivated in a greenhouse under good growth conditions. 2 to 3 weeks after sowing, the test plants are treated at the one-leaf stage. The compounds of the invention, formulated in the form of wettable powders (WP) or as emulsion concentrates (EC), are then sprayed onto the green parts of the plants in the form of an aqueous suspension or emulsion at a water application rate equivalent to 600 to 800 l/ha, with addition of 0.2% wetting agent. After the test plants have been left to stand in the greenhouse under optimal growth conditions for about 3 weeks, the action of the preparations is assessed visually in comparison to untreated controls (herbicidal action in percent (%): 100% activity=the plants have died, 0% activity=like control plants). […] The tables below illustrate, in an illustrative manner, the post-emergence herbicidal action of the compounds of the invention, the herbicidal activity being stated in percent.

Cyperus esculentus = assay: Pre-emergence herbicidal action against CYPES; details: visual score after 3 weeks vs untreated controls
Method in brief: as §2

Alopecurus myosuroides [10] = assay: Pre-emergence herbicidal action against ALOMY; details: visual score after 3 weeks vs untreated controls
Method in brief: as §2

Matricaria inodora [11] = assay: Post-emergence herbicidal action against MATIN; details: visual assessment about 3 weeks after treatment
Method in brief: as §1

Lolium rigidum = assay: Pre-emergence herbicidal action against LOLRI; details: 320 g/ha
Method in brief: as §2

Alopecurus myosuroides [12] = assay: Post-emergence herbicidal action against ALOMY
Method in brief: as §1

Stellaria media [13] = assay: Pre-emergence herbicidal action against STEME
Method in brief: as §2

Setaria viridis [14] = assay: Pre-emergence herbicidal action against SETVI
Method in brief: as §2

Hordeum murinum [15] = assay: Pre-emergence herbicidal action against HORMU; details: visual score after 3 weeks vs untreated controls
Text: Seeds of monocotyledonous and dicotyledonous weed plants and crop plants are laid out in sandy loam soil in wood-fiber pots and covered with soil. The compounds of the invention, formulated in the form of wettable powders (WP) or as emulsion concentrates (EC), are then applied to the surface of the covering soil in the form of an aqueous suspension or emulsion at a water application rate equivalent to 600 to 800 l/ha, with addition of 0.2% wetting agent. After the treatment, the pots are placed in a greenhouse and kept under good growth conditions for the trial plants. The damage to the test plants is scored visually after a test period of 3 weeks by comparison with untreated controls (herbicidal activity in percent (%): 100% activity=the plants have died, 0% activity=like control plants). […] The tables below illustrate, in an illustrative manner, the post-emergence herbicidal action of the compounds of the invention, the herbicidal activity being stated in percent.

Avena fatua [16] = assay: Pre-emergence herbicidal action against AVEFA; details: visual score after 3 weeks vs untreated controls
Method in brief: as §2

Avena fatua [17] = assay: Post-emergence herbicidal action against AVEFA; details: visual assessment about 3 weeks after treatment
Method in brief: as §1

Pharbitis purpurea [18] = assay: Post-emergence herbicidal action against PHBPU; details: visual assessment about 3 weeks after treatment
Method in brief: as §1

Pharbitis purpurea [19] = assay: Pre-emergence herbicidal action against PHBPU; details: 320 g/ha; visual score after 3 weeks vs untreated controls
Method in brief: as §2

Amaranthus retroflexus [20] = assay: Post-emergence herbicidal action against AMARE; details: visual assessment about 3 weeks after treatment
Method in brief: as §1

Viola tricolor [21] = assay: Pre-emergence herbicidal action against VIOTR
Method in brief: as §2

Setaria viridis [22] = assay: Post-emergence herbicidal action against SETVI; details: visual assessment about 3 weeks after treatment
Method in brief: as §1

CCCn1nnnc1NC(=O)c1ccc(C(F)(F)F)c(C(=O)N(C)C)c1Cl [Example 3-123]
Post-emergence action against VIOTR in % (Viola tricolor [1]; 5 g/ha): 90% | Post-emergence action against VIOTR in % (Viola tricolor [1]; 20 g/ha): 100% | Post-emergence action against VIOTR in % (Viola tricolor [1]; 80 g/ha): 100% | Pre-emergence action against AMARE (Amaranthus retroflexus [2]; 20 g/ha): 100% | Pre-emergence action against AMARE (Amaranthus retroflexus [2]; 80 g/ha): 100% | Pre-emergence action against AMARE (Amaranthus retroflexus [2]; 320 g/ha): 100% | Pre-emergence action against VERPE (Veronica persica): 90% | Post-emergence action against STEME in % (Stellaria media [3]; 5 g/ha): 90% | Post-emergence action against STEME in % (Stellaria media [3]; 20 g/ha): 100% | Post-emergence action against STEME in % (Stellaria media [3]; 80 g/ha): 100% | Pre-emergence action against ECHCG (Echinochloa crus-galli [4]; 80 g/ha): 80% | Pre-emergence action against ECHCG (Echinochloa crus-galli [4]; 320 g/ha): 100% | Post-emergence action against ECHCG in % (Echinochloa crus-galli [5]; 5 g/ha): 90% | Post-emergence action against ECHCG in % (Echinochloa crus-galli [5]; 20 g/ha): 100% | Post-emergence action against ECHCG in % (Echinochloa crus-galli [5]; 80 g/ha): 100% | Pre-emergence action against ABUTH (Abutilon theophrasti [6]; 80 g/ha): 100% | Pre-emergence action against ABUTH (Abutilon theophrasti [6]; Dosage column 320 g/ha (heading prints 3200 g/ha)): 100% | Pre-emergence action against MATIN (Matricaria inodora [7]; 20 g/ha): 80% | Pre-emergence action against MATIN (Matricaria inodora [7]; 80 g/ha): 90% | Pre-emergence action against MATIN (Matricaria inodora [7]; 320 g/ha): 100% | Post-emergence action against ABUTH (Abutilon theophrasti [8]; 5 g/ha): 100% | Post-emergence action against ABUTH (Abutilon theophrasti [8]; 20 g/ha): 100% | Post-emergence action against ABUTH (Abutilon theophrasti [8]; 80 g/ha): 100% | Post-emergence action against HORMU in % (Hordeum murinum [9]; 20 g/ha): 90% | Post-emergence action against HORMU in % (Hordeum murinum [9]; 80 g/ha): 100% | Pre-emergence action against CYPES (Cyperus esculentus; 80 g/ha): 80% | Pre-emergence action against CYPES (Cyperus esculentus; 320 g/ha): 90% | Pre-emergence action against ALOMY (Alopecurus myosuroides [10]; 80 g/ha): 80% | Pre-emergence action against ALOMY (Alopecurus myosuroides [10]; 320 g/ha): 90% | Post-emergence action against MATIN in % (Matricaria inodora [11]; 5 g/ha): 90% | Post-emergence action against MATIN in % (Matricaria inodora [11]; 20 g/ha): 100% | Post-emergence action against MATIN in % (Matricaria inodora [11]; 80 g/ha): 100% | Pre-emergence action against LOLRI (Lolium rigidum): 80% | Post-emergence action against ALOMY (Alopecurus myosuroides [12]; 20 g/ha): 80% | Post-emergence action against ALOMY (Alopecurus myosuroides [12]; 80 g/ha): 100% | Pre-emergence action against STEME (Stellaria media [13]; 20 g/ha): 90% | Pre-emergence action against STEME (Stellaria media [13]; 80 g/ha): 100% | Pre-emergence action against STEME (Stellaria media [13]; 320 g/ha): 100% | Pre-emergence action against SETVI (Setaria viridis [14]; 80 g/ha): 100% | Pre-emergence action against SETVI (Setaria viridis [14]; 320 g/ha): 100% | Pre-emergence action against HORMU (Hordeum murinum [15]; 80 g/ha): 80% | Pre-emergence action against HORMU (Hordeum murinum [15]; 320 g/ha): 100% | Pre-emergence action against AVEFA (Avena fatua [16]; 80 g/ha): 80% | Pre-emergence action against AVEFA (Avena fatua [16]; 320 g/ha): 100% | Post-emergence action against AVEFA in % (Avena fatua [17]; 5 g/ha): 80% | Post-emergence action against AVEFA in % (Avena fatua [17]; 20 g/ha): 100% | Post-emergence action against AVEFA in % (Avena fatua [17]; 80 g/ha): 100% | Post-emergence action against PHBPU in % (Pharbitis purpurea [18]; 5 g/ha): 80% | Post-emergence action against PHBPU in % (Pharbitis purpurea [18]; 20 g/ha): 90% | Post-emergence action against PHBPU in % (Pharbitis purpurea [18]; 80 g/ha): 90% | Pre-emergence action against PHBPU (Pharbitis purpurea [19]): 90% | Post-emergence action against AMARE in % (Amaranthus retroflexus [20]; 5 g/ha): 100% | Post-emergence action against AMARE in % (Amaranthus retroflexus [20]; 20 g/ha): 100% | Post-emergence action against AMARE in % (Amaranthus retroflexus [20]; 80 g/ha): 100% | Pre-emergence action against VIOTR (Viola tricolor [21]; 80 g/ha): 80% | Pre-emergence action against VIOTR (Viola tricolor [21]; 320 g/ha): 100% | Post-emergence action against SETVI in % (Setaria viridis [22]; 5 g/ha): 100% | Post-emergence action against SETVI in % (Setaria viridis [22]; 20 g/ha): 100% | Post-emergence action against SETVI in % (Setaria viridis [22]; 80 g/ha): 100%
